# From paper PMC6384738, “Structure-Function Studies of Polymyxin B Lipononapeptides” (Molecules, 2019)
# Where a SMILES comes first, the peptide text is derived from it. Bridges are numbered along the chain shown (N, C = ends). [ ]: non-standard residue; d: D form. The star is where a group is joined. Cit = NC(=O)NCCC[C@H](N)C(=O)O; dOrn = NCCC[C@@H](N)C(=O)O; Octanoyl = CCCCCCCC(=O)*; Orn = NCCC[C@H](N)C(=O)O; Dab = NCC[C@H](N)C(=O)O; Dap = NC[C@H](N)C(=O)O
# How the values were obtained:
# [1] = test system: A. baumannii ATCC 19606; test: microbe, parasite or virus in culture; conditions: ATCC 19606, 18 h
# Protocol: (§1) All compounds synthesised in this study were assessed for their minimum inhibitory concentrations (MIC, mg/L) by broth microdilution assay against five antibiotic-sensitive and resistant ATCC reference strains covering the Gram-negative ESKAPE pathogens (Escherichia coli, Klebsiella pneumoniae, A. baumannii, and P. aeruginosa) (Table 1, Table 2 and Table 3). Staphylococcus aureus was also included as a representative Gram-positive bacterial strain. […] Polymyxin B 1, colistin 2, vancomycin and gentamicin were used as positive inhibitor comparator compounds. Compounds were counter-screened against human proximal tubular epithelial cells (HK-2), using LDH release as a general indicator of cellular toxicity.
# [2] = test system: E. coli ATCC 25922; test: microbe, parasite or virus in culture; conditions: ATCC 25922, 18 h
# Protocol: as §1
# [3] = test system: K. pneumoniae ATCC 13833; test: microbe, parasite or virus in culture; conditions: ATCC 13833, 18 h
# Protocol: as §1
# [4] = test system: K. pneumoniae ATCC 700603; test: microbe, parasite or virus in culture; conditions: ATCC 700603, 18 h
# Protocol: as §1
# [5] = test system: K. pneumoniae BAA 2146; test: microbe, parasite or virus in culture; conditions: BAA 2146, 18 h
# Protocol: as §1
# [6] = test system: P. aeruginosa ATTC 27853; test: microbe, parasite or virus in culture; conditions: ATTC 27853, 18 h
# Protocol: as §1
# [7] = test system: S. aureus ATCC 25923; test: microbe, parasite or virus in culture; conditions: ATCC 25923, 18 h
# Protocol: as §1
# [8] = in vitro; conditions: human
# Protocol: as §1
# Cytotoxicity to human kidney proximal tubular epithelial cell line, HK-2 (ATCC CRL-2190, sourced from ATCC; Manassas, VA, USA) was determined using the LDH assay as previously described. In brief, HK-2 cells were seeded as 2000 cells/well in black-walled clear bottom 384-well tissue culture treated plates (Corning, catalogue No. 3712) in DMEM/F12 medium (Gibco® 10565-042) containing 10% of Fetal Bovine Serum (FBS, Gibco® 10099-141) and incubated for 24 h at 37 °C, 5% CO2. Compounds were then added into each well with a concentration series from 300 µM to 2.3 µM in 2-fold dilutions. Colistin and polymyxin B were used as controls and tested at a final concentration range of 1 mM to 7.8 µM. The cells were incubated with the compounds for 24 h at 37 °C, 5% CO2. After the incubation, 5 µL of culture medium was added to 45 µL of LDH assay buffer (Biovision, K313-500) and incubated for 30 min at room temperature. The absorbance (ABS) was then read at 450 nm using a Polar Star Omega plate reader. The data was analysed by Prism 6 software (GraphPad Software, La Jolla, CA, USA). Results were calculated using the following equation: cytotoxicity %= (ABSsamples − ABSuntreated/ABS1%Triton X-100 − ABSuntreated) × 100.
Compound,MIC A. baumannii ATCC 19606 [1] [µg/mL],MIC E. coli ATCC 25922 [2] [µg/mL],MIC K. pneumoniae ATCC 13833 [3] [µg/mL],MIC K. pneumoniae ATCC 700603 [4] [µg/mL],MIC K. pneumoniae BAA 2146 [5] [µg/mL],MIC P. aeruginosa ATTC 27853 [6] [µg/mL],MIC S. aureus ATCC 25923 [7] [µg/mL],CC50 at 24 h [8] [µM]
CCCCCCCC(=O)N[C@H](C(=O)N[C@@H](CC(N)=O)C(=O)N[C@H]1CCNC(=O)[C@H]([C@@H](C)O)NC(=O)[C@H](CCN)NC(=O)[C@H](CCN)NC(=O)[C@H](CC(C)C)NC(=O)[C@@H](Cc2ccccc2)NC(=O)[C@H](CCN)NC1=O)[C@@H](C)O [Compound 38] (Octanoyl-TN[Dab][Dab][dF]L[Dab][Dab]T; lactam 3-C),>32,32,>32,>32,>32,>32,>32,284
CCCCCCCC(=O)N[C@H](C(=O)N[C@@H](CN)C(=O)N[C@H]1CCNC(=O)[C@H]([C@@H](C)O)NC(=O)[C@H](CCN)NC(=O)[C@H](CCN)NC(=O)[C@H](CC(C)C)NC(=O)[C@@H](Cc2ccccc2)NC(=O)[C@H](CCN)NC1=O)[C@@H](C)O [Compound 39] (Octanoyl-T[Dap][Dab][Dab][dF]L[Dab][Dab]T; lactam 3-C),1,1,1,1,0.5,1,>32,290
CCCCCCCC(=O)N[C@H](C(=O)N[C@@H](CCCN)C(=O)N[C@H]1CCNC(=O)[C@H]([C@@H](C)O)NC(=O)[C@H](CCN)NC(=O)[C@H](CCN)NC(=O)[C@H](CC(C)C)NC(=O)[C@@H](Cc2ccccc2)NC(=O)[C@H](CCN)NC1=O)[C@@H](C)O [Compound 40] (Octanoyl-T[Orn][Dab][Dab][dF]L[Dab][Dab]T; lactam 3-C),16,2,8,4,4,2,>32,> 300
CCCCCCCC(=O)N[C@H](C(=O)N[C@H](CCCN)C(=O)N[C@H]1CCNC(=O)[C@H]([C@@H](C)O)NC(=O)[C@H](CCN)NC(=O)[C@H](CCN)NC(=O)[C@H](CC(C)C)NC(=O)[C@@H](Cc2ccccc2)NC(=O)[C@H](CCN)NC1=O)[C@@H](C)O [Compound 41] (Octanoyl-T[dOrn][Dab][Dab][dF]L[Dab][Dab]T; lactam 3-C),16,1,32,4,1,4,>32,> 300
CCCCCCCC(=O)N[C@H](C(=O)N[C@@H](CCCCN)C(=O)N[C@H]1CCNC(=O)[C@H]([C@@H](C)O)NC(=O)[C@H](CCN)NC(=O)[C@H](CCN)NC(=O)[C@H](CC(C)C)NC(=O)[C@@H](Cc2ccccc2)NC(=O)[C@H](CCN)NC1=O)[C@@H](C)O [Compound 42] (Octanoyl-TK[Dab][Dab][dF]L[Dab][Dab]T; lactam 3-C),32,4,16,16,8,4,>32,> 300
CCCCCCCC(=O)N[C@H](C(=O)N[C@H](CCCCN)C(=O)N[C@H]1CCNC(=O)[C@H]([C@@H](C)O)NC(=O)[C@H](CCN)NC(=O)[C@H](CCN)NC(=O)[C@H](CC(C)C)NC(=O)[C@@H](Cc2ccccc2)NC(=O)[C@H](CCN)NC1=O)[C@@H](C)O [Compound 43] (Octanoyl-T[dK][Dab][Dab][dF]L[Dab][Dab]T; lactam 3-C),16,1,>32,4,4,4,>32,> 300
CCCCCCCC(=O)N[C@H](C(=O)N[C@@H](CCCNC(N)=O)C(=O)N[C@H]1CCNC(=O)[C@H]([C@@H](C)O)NC(=O)[C@H](CCN)NC(=O)[C@H](CCN)NC(=O)[C@H](CC(C)C)NC(=O)[C@@H](Cc2ccccc2)NC(=O)[C@H](CCN)NC1=O)[C@@H](C)O [Compound 44] (Octanoyl-T[Cit][Dab][Dab][dF]L[Dab][Dab]T; lactam 3-C),>32,32,>32,>32,32,>32,>32,> 300
CCCCCCCC(=O)N[C@H](C(=O)N[C@@H](CCCNC(=N)N)C(=O)N[C@H]1CCNC(=O)[C@H]([C@@H](C)O)NC(=O)[C@H](CCN)NC(=O)[C@H](CCN)NC(=O)[C@H](CC(C)C)NC(=O)[C@@H](Cc2ccccc2)NC(=O)[C@H](CCN)NC1=O)[C@@H](C)O [Compound 45] (Octanoyl-TR[Dab][Dab][dF]L[Dab][Dab]T; lactam 3-C),32,2,>32,8,16,4,>32,> 300
CCCCCCCC(=O)N[C@H](C(=O)N[C@@H](Cc1c[nH]c2ccccc12)C(=O)N[C@H]1CCNC(=O)[C@H]([C@@H](C)O)NC(=O)[C@H](CCN)NC(=O)[C@H](CCN)NC(=O)[C@H](CC(C)C)NC(=O)[C@@H](Cc2ccccc2)NC(=O)[C@H](CCN)NC1=O)[C@@H](C)O [Compound 46] (Octanoyl-TW[Dab][Dab][dF]L[Dab][Dab]T; lactam 3-C),>32,>32,>32,32,>32,>32,>32,> 300
CCCCCCCC(=O)N[C@H](C(=O)N[C@@H](Cc1c[nH]cn1)C(=O)N[C@H]1CCNC(=O)[C@H]([C@@H](C)O)NC(=O)[C@H](CCN)NC(=O)[C@H](CCN)NC(=O)[C@H](CC(C)C)NC(=O)[C@@H](Cc2ccccc2)NC(=O)[C@H](CCN)NC1=O)[C@@H](C)O [Compound 47] (Octanoyl-TH[Dab][Dab][dF]L[Dab][Dab]T; lactam 3-C),>32,4,>32,32,16,16,>32,> 300
